Several values for one entry are separate records, joined by “and”; a condition that tells them apart may be missing. Identical values can stand only once.
Test: phase I safety and tolerability, 120 h continuous infusion every 4 weeks
[1] = Table 3, 6 mg m-2 cycle-1, 4 patients studied
[2] = Table 3, 12 mg m-2 cycle-1, 3 patients studied
[3] = Table 3, 24 mg m-2 cycle-1, 3 patients studied
[4] = Table 3, 400 mg m-2 cycle-1, 6 patients studied
[5] = Table 3, 550 mg m-2 cycle-1, 6 patients studied
[6] = Table 3, 700 mg m-2 cycle-1, 5 patients studied
[7] = Table 3, all dose levels, 39 patients
[8] = Table 3, all dose levels, 39 patients, incl. combination
[9] = Table 4, after infusion (day 6-28), 550 mg m-2 cycle-1, 6 patients studied
[10] = Table 4, after infusion (day 6-28), 700 mg m-2 cycle-1, 5 patients studied
[11] = Table 4, after infusion (day 6-28), all dose levels, 39 patients
[12] = Table 4, after infusion (days 6-28), 3 mg m-2 cycle-1, 3 patients studied
[13] = Table 4, after infusion (days 6-28), 6 mg m-2 cycle-1, 4 patients studied
[14] = Table 4, after infusion (days 6-28), 24 mg m-2 cycle-1, 3 patients studied
[15] = Table 4, after infusion (days 6-28), 96 mg m-2 cycle-1, 3 patients studied
[16] = Table 4, after infusion (days 6-28), 400 mg m-2 cycle-1, 6 patients studied
[17] = Table 4, after infusion (days 6-28), 550 mg m-2 cycle-1, 6 patients studied
[18] = Table 4, after infusion (days 6-28), 700 mg m-2 cycle-1, 5 patients studied
[19] = Table 4, after infusion (days 6-28), all dose levels, 39 patients
[20] = Table 4, during infusion (day 1-5), 700 mg m-2 cycle-1, 5 patients studied
[21] = Table 4, during infusion (day 1-5), all dose levels, 39 patients

## N=C(N)c1cccc2c1CCC2=NN=C(N)N [SAM486A]
550 mg m-2 cycle-1, six patients
  patients with grade 4 granulocytopenia: three
120 h continuous infusion every 4 weeks
  maximum tolerated dose (MTD): 400 mg m-2 cycle-1
Figure 4
  correlation coefficient AUC vs granulocytopenia: 0.6931
  correlation coefficient dose vs granulocytopenia: 0.5814
Table 3, 3 mg m-2 cycle-1, 3 patients studied
  Haemoglobin grade 1-4, no. of patients: 2 patients
[1]
  Haemoglobin grade 1-4, no. of patients: 2 patients
  Thrombocytes (platelets) grade 1-4, no. of patients: 1 patients
  Thrombocytes grade 3-4, no. of patients: 1 patients
[2]
  Haemoglobin grade 1-4, no. of patients: 2 patients
  Haemoglobin grade 3-4, no. of patients: 1 patients
[3]
  Haemoglobin grade 1-4, no. of patients: 3 patients
  Haemoglobin grade 3-4, no. of patients: 1 patients
Table 3, 48 mg m-2 cycle-1, 4 patients studied
  Haemoglobin grade 1-4, no. of patients: 2 patients
Table 3, 96 mg m-2 cycle-1, 3 patients studied
  Haemoglobin grade 1-4, no. of patients: 1 patients
Table 3, 200 mg m-2 cycle-1, 2 patients studied
  Leukocytes (WBC) grade 1-4, no. of patients: 1 patients
[4]
  Granulocytes (AGC) grade 1-4, no. of patients: 2 patients
  Granulocytes (AGC) grade 3-4, no. of patients: 1 patients
  Haemoglobin grade 1-4, no. of patients: 3 patients
  Leukocytes (WBC) grade 1-4, no. of patients: 2 patients
[5]
  Granulocytes (AGC) grade 1-4, no. of patients: 4 patients
  Granulocytes (AGC) grade 3-4, no. of patients: 4 patients
  Haemoglobin grade 1-4, no. of patients: 4 patients
  Haemoglobin grade 3-4, no. of patients: 1 patients
  Leukocytes (WBC) grade 1-4, no. of patients: 5 patients
  Leukocytes (WBC) grade 3-4, no. of patients: 3 patients
  Thrombocytes (platelets) grade 1-4, no. of patients: 1 patients
  Thrombocytes grade 3-4, no. of patients: 1 patients
[6]
  Granulocytes (AGC) grade 1-4, no. of patients: 4 patients
  Granulocytes (AGC) grade 3-4, no. of patients: 3 patients
  Haemoglobin grade 1-4, no. of patients: 2 patients
  Haemoglobin grade 3-4, no. of patients: 1 patients
  Leukocytes (WBC) grade 1-4, no. of patients: 4 patients
  Leukocytes (WBC) grade 3-4, no. of patients: 3 patients
  Thrombocytes (platelets) grade 1-4, no. of patients: 2 patients
[7]
  Haemoglobin grade 1-4, Total (%): 21 (54) patients (%)
  Haemoglobin grade 3-4, Total (%): 4 (10) patients (%)
  Thrombocytes grade 3-4, Total (%): 2 (5) patients (%)
[8]
  Granulocytes (AGC) grade 1-4, Total (%): 12 (31) patients (%)
  Granulocytes (AGC) grade 3-4, Total (%): 9 (23) patients (%)
  Leukocytes (WBC) grade 1-4, Total (%): 14 (36) patients (%)
  Leukocytes (WBC) grade 3-4, Total (%): 7 (18) patients (%)
Table 4, after infusion (day 6-28), 400 mg m-2 cycle-1, 6 patients studied
  Fatigue grade 3-4, no. of patients: 1 patients
[9]
  Anorexia grade 3-4, no. of patients: 1 patients
  Atrial fibrillation grade 3-4, no. of patients: 1 patients
  Condition aggravated grade 3-4, no. of patients: 1 patients
[10]
  Dementia grade 3-4, no. of patients: 1 patients
  Dyspnea grade 3-4, no. of patients: 1 patients
  Fatigue grade 3-4, no. of patients: 1 patients
  Somnolence grade 3-4, no. of patients: 1 patients
  Vesicular rash grade 3-4, no. of patients: 1 patients
[11]
  Anorexia grade 3-4, Total (%): 1 (3) patients (%)
  Atrial fibrillation grade 3-4, Total (%): 1 (3) patients (%)
  Condition aggravated grade 3-4, Total (%): 1 (3) patients (%)
  Dementia grade 3-4, Total (%): 1 (3) patients (%)
  Dyspnea grade 3-4, Total (%): 1 (3) patients (%)
  Fatigue grade 3-4, Total (%): 2 (5) patients (%)
  Somnolence grade 3-4, Total (%): 1 (3) patients (%)
  Vesicular rash grade 3-4, Total (%): 1 (3) patients (%)
Table 4, after infusion (day 6-28), all dose levels, 39 patients, incl. combination
  Mucositis nos grade 3-4, Total (%): 1 (3) patients (%)
[12]
  Anorexia grade 1-4, no. of patients: 1 patients
  Fatigue grade 1-4, no. of patients: 1 patients
[13]
  Fatigue grade 1-4, no. of patients: 1 patients
  Nausea grade 1-4, no. of patients: 1 patients
Table 4, after infusion (days 6-28), 12 mg m-2 cycle-1, 3 patients studied
  Fatigue grade 1-4, no. of patients: 1 patients
[14]
  Fatigue grade 1-4, no. of patients: 1 patients
  Nausea grade 1-4, no. of patients: 1 patients
  Vomiting grade 1-4, no. of patients: 1 patients
[15]
  Nausea grade 1-4, no. of patients: 1 patients
  Vomiting grade 1-4, no. of patients: 1 patients
[16]
  Anorexia grade 1-4, no. of patients: 3 patients
  Fatigue grade 1-4, no. of patients: 2 patients
  Nausea grade 1-4, no. of patients: 1 patients
[17]
  Anorexia grade 1-4, no. of patients: 1 patients
  Fatigue grade 1-4, no. of patients: 2 patients
  Nausea grade 1-4, no. of patients: 3 patients
  Vomiting grade 1-4, no. of patients: 3 patients
[18]
  Fatigue grade 1-4, no. of patients: 2 patients
  Nausea grade 1-4, no. of patients: 2 patients
  Vomiting grade 1-4, no. of patients: 3 patients
[19]
  Anorexia grade 1-4, Total (%): 5 (13) patients (%)
  Fatigue grade 1-4, Total (%): 10 (26) patients (%)
  Vomiting grade 1-4, Total (%): 8 (21) patients (%)
Table 4, after infusion (days 6-28), all dose levels, 39 patients, incl. combination
  Nausea grade 1-4, Total (%): 10 (26) patients (%)
Table 4, during infusion (day 1-5), 550 mg m-2 cycle-1, 6 patients studied
  Asthenia grade 3-4, no. of patients: 1 patients
[20]
  Condition aggravated grade 3-4, no. of patients: 1 patients
  Vesicular rash grade 3-4, no. of patients: 1 patients
  Vomiting grade 3-4, no. of patients: 1 patients
[21]
  Asthenia grade 3-4, Total (%): 1 (3) patients (%)
  Condition aggravated grade 3-4, Total (%): 1 (3) patients (%)
  Vesicular rash grade 3-4, Total (%): 1 (3) patients (%)
  Vomiting grade 3-4, Total (%): 1 (3) patients (%)
Table 4, during infusion (days 1-5), 400 mg m-2 cycle-1, 6 patients studied
  Nausea grade 1-4, no. of patients: 1 patients
Table 4, during infusion (days 1-5), 550 mg m-2 cycle-1, 6 patients studied
  Nausea grade 1-4, no. of patients: 2 patients
Table 4, during infusion (days 1-5), 700 mg m-2 cycle-1, 5 patients studied
  Nausea grade 1-4, no. of patients: 2 patients
Table 4, during infusion (days 1-5), all dose levels, 39 patients
  Nausea grade 1-4, Total (%): 5 (13) patients (%)
After infusion, any causality
  mild to moderate nausea and vomiting, incidence: 31%
After the infusion, any causality
  fatigue, incidence in all patients: 51%
All patients
  anorexia considered related to SAM486A, incidence: 13%
  fatigue considered related to SAM486A, incidence: 26%
  nausea considered related to SAM486A, incidence: 26%
  vomiting considered related to SAM486A, incidence: 21%
During infusion, any causality
  mild to moderate nausea and vomiting, incidence: 15%
In vivo
  changes in electrolytes, renal function, LVEF: no significant drug-related changes
  correlation coefficient Cmax vs granulocytopenia: 0.6794
  dose with reversible dose-limiting neutropenia: 550 mg m^–2cycle^–1 and 700 mg m^–2cycle^–1
  fever associated with granulocytopenia: three
  median day of granulocyte nadir: 21 day of the cycle
  patients with grade 4 granulocytopenia: three out of five
  patients with some worsening in performance status: eight of the 11
  recommended dose for phase II studies: 400 and 400 mg m-2 cycle-1
Without growth factors
  time to spontaneous recovery from granulocyte nadir: ≤ 1 week

Reference: publication PMC2363502
